{"source": "patent US20150309029A1", "about": "“Methods for Cancer Diagnosis, Anti-Cancer Drug Screening, and Test of Drug Effectiveness on the Basis of Phoshorylation of Ras at Thr-144 and Thr-148” (Industry-Academic Cooperation Foundation, Yonsei University, priority 2010, published 2015)", "assay_type_in_all_cases": "cell-based, human", "key": {"[1]": {"system": "phosphor-mimetic form of H-Ras", "assay": "Immunoblot of phospho-mimetic H-Ras level in transfected HEK293 cells after ALLN", "conditions": "ALLN for 12 hours, immunoblot (FIG. 5A lower panels)", "experimental": "The protein expression level of the phosphorylation mimetic mutant is too low to be detected due to the severe destabilization; therefore, the proteasomal inhibitor, ALLN was treated to check for the accumulation of phosphor-mimetic form of H-Ras.\nHEK293 cells were transfected with pcDNA3.1-H-Ras, pcDNA3.1-H-Ras-T144E/T148E, or pcDNA3.1-H-Ras-T144D/T148D. For indicated cases, ALLN was also administered for 12 hours. WCEs were immunoblotted with anti-Myc or -α-tubulin antibody (FIG. 5A lower panels). Treatment with ALLN increased the level of phosphor-mimetic form of H-Ras."}, "[2]": {"system": "polyubiquitin-conjugated K- and N-Ras proteins", "assay": "IP/immunoblot of polyubiquitinated K- and N-Ras in transfected HEK293 cells after ALLN", "conditions": "ALLN treatment, IP with anti-Myc (FIG. 8A)", "experimental": "To examine the possibility that K- and N-Ras proteins, similar to H-Ras, were subjected to polyubiquitination by proteasomal degradation, HEK293 cells were transfected with pcDNA3.1-H-Ras, pcDNA3.1-K-Ras, or pcDNA3.1-N-Ras with pCS4-3xFlag-Ub. Cells were treated with ALLN followed by IP with anti-Myc antibody and then immunoblotted with anti-Myc, -α-tubulin, or -Flag antibody. […] Therefore, we confirmed that H-, K-, N-Ras protein stability is regulated by polyubiquitin-dependent proteasomal degradation (FIG. 8A)."}, "Pan-Ras": {"system": "Pan-Ras", "assay": "Polyubiquitination of endogenous Pan-Ras in HEK293 cells with Gsk3β siRNA", "conditions": "siRNA knockdown, ALLN 12 hours (FIG. 1A)", "experimental": "Full-length human H-Ras was isolated from a HEK293 cell cDNA library by PCR and then inserted into the pcDNA-3.1-myc vector using EcoRI and HindIII restriction sites. PcDNA3.1-Gsk3β-V5 was constructed in a similar method. HEK293 cells were transfected with vector/nonspecific siRNA, Gsk3β siRNA, or pcDNA3.1-Gsk3β-V5 together with pCS4-3xFlag-Ub for 24 hours and treated with the proteasome inhibitor ALLN for 12 hours. WCEs (whole cell extracts) were then immunoprecipitated (IP) with anti-Pan-Ras antibody to detect the polyubiquitinated H-Ras. WCEs were immunoblotted with antibodies to Gsk3β, Pan-Ras, Myc-H-Ras or α-tubulin. The siRNA sequences for Gsk3β NM_002093) were 5′-[…]-3′ (SEQ ID NO: 2) and 5′-[…]-3′ (SEQ ID NO: 3). The GFP siRNA used for the negative control was 5′-[…]-3′ (SEQ ID NO: 4) (synthesized by Samchully Pharmaceutical, Korea)."}, "H-Ras [3]": {"system": "H-Ras", "assay": "H-Ras polyubiquitination in HEK293 cells with Gsk3β or Axin siRNA", "conditions": "siRNA knockdown, ALLN 12 hours (FIG. 1C)", "experimental": "Next, HEK293 cells were transfected with vector/nonspecific siRNA, pSUPER-Axin siRNA, pCS2-MT-Axin, siGsk3β, and/or pcDNA3.1-Gsk3β-V5 together with pcDNA3.1-H-Ras and pCS4-3xFlag-Ub for 24 hours and then treated with ALLN for 12 hours. IP and immunoblotting were performed as described above."}, "H-Ras [4]": {"system": "H-Ras", "assay": "IP/immunoblot of H-Ras polyubiquitination and β-TrCP interaction in HEK293 cells with Wnt3a", "experimental": "HEK293 cells were transfected the pcDNA3.1-H-Ras, pcDNA3.1-H-Ras-T144E/T148E, or pcDNA3.1-H-Ras-T144A/T148A with vector, pcDNA3.1-Gsk3β-V5, and/or pcDNA3.1-Flag-β-TrCP, together with pCS4-3xHA-Ub, treated with ALLN for 12 hours and/or Wnt3a for 2 hours as indicated, and prepared for IP with anti-Myc antibody. IPs and WCEs were immunoblotted with anti-HA, -β-TrCP or -α-tubulin antibody."}}, "note": "Where a SMILES comes first, the peptide text is derived from it. [ ]: non-standard residue; d: D form. Nle = CCCC[C@H](N)C(=O)O", "data": [{"molecule": "CCCC[C@@H](C=O)NC(=O)[C@H](CC(C)C)NC(=O)[C@H](CC(C)C)NC(C)=O", "note": "[ALLN] (Ac-Leu-Leu-[Nle]-aldehyde)", "values": [{"measurement": "level of phosphor-mimetic form of H-Ras", "setting": "[1]", "value": "increased"}, {"measurement": "accumulation of polyubiquitin-conjugated K- and N-Ras proteins", "setting": "[2]", "value": "accumulation of polyubiquitin-conjugated K- and N-Ras proteins"}]}, {"molecule": "Gsk3β siRNA: siRNA for Gsk3β: 5′-CACUGAUUAUACCUCUAGU-3′ and 5′-CACUGUAACAUAGUCCGAU-3′ (chemistry not given here)", "values": [{"measurement": "levels of Pan-Ras polyubiquitination", "setting": "Pan-Ras", "value": "decreased"}, {"measurement": "H-Ras polyubiquitination", "setting": "H-Ras [3]", "value": "decreased"}]}, {"molecule": "Wnt3a: recombinant Wnt3a (protein, UniProt P56704 19-352, looked up) Protein Wnt-3a: SYPIWWSLAVGPQYSSLGSQPILCASIPGLVPKQLRFCRNYVEIMPSVAEGIKIGIQECQHQFRGRRWNCTTVHDSLAIFGPVLDKATRESAFVHAIASAGVAFAVTRSCAEGTAAICGCSSRHQGSPGKGWKWGGCSEDIEFGGMVSREFADARENRPDARSAMNRHNNEAGRQAIASHMHLKCKCHGLSGSCEVKTCWWSQPDFRAIGDFLKDKYDSASEMVVEKHRESRGWVETLRPRYTYFKVPTERDLVYYEASPNFCEPNPETGSFGTRDRTCNVSSHGIDGCDLLCCGRGHNARAERRREKCRCVFHWCCYVSCQECTRVYDVHTCK", "values": [{"measurement": "polyubiquitination of phospho-deficient form of H-Ras", "setting": "H-Ras [4]; Wnt3a, T144A/T148A H-Ras", "value": "not affected"}, {"measurement": "polyubiquitination and interaction with β-TrCP of Wt H-Ras increased by Gsk3β transfection", "setting": "H-Ras [4]; recombinant Wnt3a for 2 hours, Wt H-Ras", "value": "blocked"}]}]}
